Data as given in US4704400A, “Medicarpin derivatives and analogs” (Merck & Co., Inc., priority 1986, dated 1987).

Columns and labels:
prostaglandin = conditions: isolated from Dalbergia Odorifera T. Chen.; cited from earlier work
[1] = system: thromboxane B2 production in CXBG cells; assay: Inhibition of CXBG prostoglandin production (thromboxane B2 by enzyme immunoassay, A23187-stimulated cells); type: cell-based, mice; conditions: A23187 stimulation 10 minutes at 37°, inhibitor preincubated 5 minutes
Method: (§1) Representative compounds of Formula I have been tested using the following assay to determine their mammalian leukotriene biosynthesis inhibiting activity and other relevant activities:
(§2) CXBG cells grown intraperitoneally in CB4 B6 /F1 /J mice were washed 5 times in Dulbeccos phosphate buffered saline without calcium or magnesium, suspended in medium 199 (Gibco) at 2×10^6 cells/ml, and incubated 15 minutes at 37°. Inhibitor solutions in methanol were incubated with the cells (10 μl/600 μl cells), for 5 minutes at 37°, and the cells were stimulated with 60 μl A23187 (50 μg/ml) for 10 minutes at 37°. Aliquots were removed for measurement of leukotriene C4 or thromboxane B2 by enzyme immunoassay as previously reported (D. K. Miller, et al., J. Immunological Methods, 81, 169-185, 1985). The percentage inhibition was calculated by the following: [formula]
(§3) IC50 s were determined graphically.

[2] = system: leukotriene C4 production in CXBG cells; assay: Inhibition of CXBG leukotriene production (leukotriene C4 by enzyme immunoassay, A23187-stimulated cells); type: cell-based, mice; conditions: A23187 stimulation 10 minutes at 37°, inhibitor preincubated 5 minutes
Method: as §1, §2, §3

Compound	prostaglandin inhibition (prostaglandin)	IC50, TXB2 [1]	IC50, LTC4 [2]
COc1ccc2c(c1)O[C@H]1c3ccc(O)cc3OC[C@@H]21 (relative stereo) [medicarpin]	negative results	–	–
(iso)medicarpin	–	> 5 µg/mL	0.1 µg/mL
